In article PMC5608804, “Stepwise Evolution Improves Identification of Diverse Peptides Binding to a Protein Target” (Scientific Reports, 2017):

Molecular target: T1, streptavidin (Streptomyces avidinii, UniProt P22629)
T1 construct: purchased GE Healthcare (Little Chalfont, UK)
Assay: Cy5-streptavidin binding on HotSpot discovery array, 5-mer L-peptide library
Conditions: for S/B: signal to background ratio
From the text: To identify hotspot sequences that bind to streptavidin (SA), we bound Cy5-SA to an array library of 2,476,099 5-mer L-peptides synthesized with 19 of 20 natural amino acids (excluding cysteine). The fluorescence signal intensity was aggregated across three independently synthesized arrays; then the 2,047 peptides with a signal-to-background ratio (S/B) >4 were selected. The data was further filtered to select 1,100 peptides for which signal intensities were highly correlated on all 3 arrays (the percentage of mean deviation to mean was <10%, see Supplementary dataset Table 2A). Most selected sequences (1,019 of 1,100) contained HP, PQ, or PM sequences: their presence would be expected in the well-known HPQ and HPM streptavidin binders[13]–[18].
The comprehensive peptide library included 2,476,099 5-mer peptides synthesized in a single copy with 19 of 20 L- or D-amino acids (excluding cysteine). Libraries were flanked on both N- and C-termini by linkers of 1 or 3 amino acids using a 3:1 glycine-serine mixture.
Cy5™-streptavidin (Cy5-SA) was purchased from GE Healthcare (Little Chalfont, UK). Freshly deprotected arrays were used in each experiment. Streptavidin binding to all arrays was performed with 0.5 µg/ml Cy5-SA either in binding buffer containing 10 mM Tris-HCl (pH 7.4), 1% alkali-soluble casein (EMD Millipore), 0.05% Tween-20 or in 10 mM Tris-HCl (pH 7.4), 4% BSA (Roche, Basel, Switzerland), 0.05% Tween-20 in a 30 mL PAP Jar container (Evergreen Scientific, Vernon, CA) overnight at 4° C. After incubation, arrays were washed in 20 mM Tris-HCl (pH 7.8), 0.2 M NaCl, 1% SDS or 1X TBS (pH 7.4) for 30 sec followed by a 1 min wash in water, and then dried by spinning in a microcentrifuge equipped with an array holder.
Cy5 fluorescence intensity of the arrays was measured with an MS200 scanner (Roche NimbleGen, Madison, WI) at resolution 2 µm, wavelength 635 nm, gain 25%, and laser intensity 100%. Cy5 signal intensities were extracted using Image Extraction Software (Roche NimbleGen). Data pre-processing, normalization, and statistical tests were performed using the language R. Data visualization and analysis was performed with the Spotfire 6.5.0 (Tibco, Boston, MA) software platform. Distance analysis and principle component analysis of distance matrices were performed with the R package PEPLIB[19].

[1] = 5-mer L-peptide library array, Cy5-streptavidin, from average of three arrays
[2] = 5-mer L-peptide library array, Cy5-streptavidin, from the average of three arrays
[3] = 5-mer L-peptide library array, Cy5-streptavidin
[4] = 5-mer L-peptide library, from the average of three arrays
[5] = average of three arrays, L-peptide 5-mer library

T1 sequence (P22629 25-183): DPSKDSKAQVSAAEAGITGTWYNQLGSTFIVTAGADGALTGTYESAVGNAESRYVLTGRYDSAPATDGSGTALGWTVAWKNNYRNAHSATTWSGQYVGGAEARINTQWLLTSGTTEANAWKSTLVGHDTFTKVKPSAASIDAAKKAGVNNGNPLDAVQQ

AAHPM
S/B (signal to background ratio) [1]: 35.3

AAHPQ
S/B (signal to background ratio) [1]: 123.9

ADHPQ
S/B (signal to background ratio) [2]: 69.7

AFHPQ
S/B (signal to background ratio) [1]: 177.5

AGHPQ
S/B (signal to background ratio) [1]: 137.1

AHHPQ
S/B (signal to background ratio) [1]: 131.6

AHPMA
S/B (signal to background ratio) [2]: 60.9

AHPMF
S/B [3]: 10.8

AHPMS
S/B (signal to background ratio) [1]: 27.6

AHPMY
S/B [3]: 7.7

AHPQD
S/B [3]: 10.2

AHPQG
S/B (signal to background ratio) [1]: 120.5

AHPQI
S/B [3]: 15.7

AHPQK
S/B [3]: 12.1

AHPQM
S/B (signal to background ratio) [1]: 32.6

AHPQP
S/B (signal to background ratio) [4]: 4.1

AHPQQ
S/B (signal to background ratio) [1]: 34.0

AHPQS
S/B (signal to background ratio) [2]: 79.9

AHPQT
S/B [3]: 18.8

AKHPM
S/B [3]: 18.3

ALHPM
S/B (signal to background ratio) [1]: 39.7

ALHPQ
S/B (signal to background ratio) [1]: 123.6

AMHPM
S/B (signal to background ratio) [1]: 42.8

AMHPQ
S/B (signal to background ratio) [1]: 124.0

ANHPM
S/B (signal to background ratio) [1]: 47.0

ANHPQ
S/B (signal to background ratio) [2]: 115.8

APHPM
S/B (signal to background ratio) [1]: 38.6

APHPQ
S/B (signal to background ratio) [1]: 142.8

ASHPQ
S/B (signal to background ratio) [1]: 130.1

ATHPQ
S/B (signal to background ratio) [1]: 135.7

AVHPM
S/B (signal to background ratio) [1]: 23.8

AWHPQ
S/B (signal to background ratio) [1]: 172.2

AYHPM
S/B (signal to background ratio) [2]: 66.7

DAHPQ
S/B (signal to background ratio) [2]: 62.6

DDHPM
S/B [3]: 11.6

DDHPQ
S/B (signal to background ratio) [1]: 31.9

DEHPQ
S/B (signal to background ratio) [1]: 26.0

DFHPM
S/B (signal to background ratio) [1]: 36.4

DFHPQ
S/B (signal to background ratio) [2]: 75.2

DGHPQ
S/B (signal to background ratio) [2]: 62.6

DHHPM
S/B (signal to background ratio) [1]: 32.9

DHPMG
S/B (signal to background ratio) [1]: 29.8

DHPMK
S/B [3]: 13.3

DHPMM
S/B [3]: 5.6

DHPMN
S/B [3]: 12.4

DHPMY
S/B [3]: 6.4

DHPQA
S/B (signal to background ratio) [2]: 83.3

DHPQG
S/B (signal to background ratio) [2]: 77.3

DHPQH
S/B (signal to background ratio) [1]: 31.2

DHPQK
S/B (signal to background ratio) [1]: 32.1

DHPQN
S/B (signal to background ratio) [2]: 72.7

DHPQS
S/B (signal to background ratio) [1]: 49.1

DHPQT
S/B [3]: 8.9

DKHPM
S/B [3]: 18.2

DLHPQ
S/B (signal to background ratio) [2]: 60.4

DMHPQ
S/B (signal to background ratio) [2]: 69.3

DNHPQ
S/B (signal to background ratio) [2]: 74.6

DPFGW [L-amino acid 5-mer array peptide]
S/B (signal to background ratio) [5]: 10.1 | S/B [3]: 10.1

DPHPQ
S/B (signal to background ratio) [2]: 88.5

DRHPQ
S/B (signal to background ratio) [2]: 87.4

DSHPM
S/B [3]: 17.9

DSHPQ
S/B (signal to background ratio) [2]: 74.0

DTHPQ
S/B (signal to background ratio) [2]: 68.3

DWDKV [L-amino acid 5-mer array peptide]
S/B (signal to background ratio) [5]: 5.7 | S/B [3]: 5.7

DWDSW [L-amino acid 5-mer array peptide]
S/B (signal to background ratio) [4]: 4.9 | S/B (signal to background ratio) [5]: 4.9

DYHPM
S/B (signal to background ratio) [1]: 28.4

DYHPQ
S/B (signal to background ratio) [2]: 103.8

EAHPM
S/B [3]: 16.5

EDHPQ
S/B (signal to background ratio) [1]: 34.6

EEHPQ
S/B (signal to background ratio) [1]: 27.3

EFHPQ
S/B (signal to background ratio) [2]: 100.0

EGHPM
S/B (signal to background ratio) [1]: 22.4

EHHPM
S/B (signal to background ratio) [1]: 31.0

EHHPQ
S/B (signal to background ratio) [2]: 87.5

EHPMY
S/B (signal to background ratio) [4]: 4.5

EHPQA
S/B (signal to background ratio) [2]: 70.0

EHPQF
S/B (signal to background ratio) [1]: 53.2

EHPQG
S/B (signal to background ratio) [2]: 64.3

EHPQI
S/B [3]: 6.3

EHPQN
S/B (signal to background ratio) [2]: 71.2

EHPQQ
S/B [3]: 16.2

EHPQR
S/B (signal to background ratio) [1]: 45.0

EHPQS
S/B (signal to background ratio) [1]: 36.4

EHPQV
S/B (signal to background ratio) [1]: 41.0

EHPQY
S/B (signal to background ratio) [1]: 22.3

EIHPM
S/B [3]: 9.9

ELHPQ
S/B (signal to background ratio) [1]: 56.4

EMHPQ
S/B (signal to background ratio) [1]: 44.9

ENHPM
S/B (signal to background ratio) [1]: 23.5

ENHPQ
S/B (signal to background ratio) [2]: 78.3

EPHPM
S/B (signal to background ratio) [1]: 23.1

EQHPQ
S/B (signal to background ratio) [1]: 43.8

ERHPQ
S/B (signal to background ratio) [1]: 134.2

ESHPM
S/B [3]: 17.2

ESHPQ
S/B (signal to background ratio) [2]: 64.3

ETHPQ
S/B (signal to background ratio) [1]: 49.0

EVHPM
S/B (signal to background ratio) [4]: 5.0

EVHPQ
S/B (signal to background ratio) [1]: 44.3

EWHPM
S/B (signal to background ratio) [1]: 38.1

EYHPQ
S/B (signal to background ratio) [2]: 96.9

FAHPM
S/B (signal to background ratio) [2]: 90.2

FAHPQ
S/B (signal to background ratio) [1]: 186.9

FDAWL [L-amino acid 5-mer array peptide]
S/B (signal to background ratio) [5]: 11.9 | S/B [3]: 11.9

FDDFL [L-amino acid 5-mer array peptide]
S/B (signal to background ratio) [4]: 5.0 | S/B (signal to background ratio) [5]: 5.0

FDEWL [L-amino acid 5-mer array peptide]
S/B (signal to background ratio) [4]: 4.8 | S/B (signal to background ratio) [5]: 4.8

FDGWL [L-amino acid 5-mer array peptide]
S/B (signal to background ratio) [5]: 6.7 | S/B [3]: 6.7

FDHPQ
S/B (signal to background ratio) [1]: 121.8

FDKWL [L-amino acid 5-mer array peptide]
S/B (signal to background ratio) [5]: 15.9 | S/B [3]: 15.9

FDNWL [L-amino acid 5-mer array peptide]
S/B (signal to background ratio) [5]: 9.9 | S/B [3]: 9.9

FDSWL [L-amino acid 5-mer array peptide]
S/B (signal to background ratio) [5]: 8.0 | S/B [3]: 8.0

FDTWL [L-amino acid 5-mer array peptide]
S/B (signal to background ratio) [5]: 7.3 | S/B [3]: 7.3

FEHPQ
S/B (signal to background ratio) [2]: 96.4

FFHPM
S/B (signal to background ratio) [2]: 89.2

FFHPQ
S/B (signal to background ratio) [1]: 192.2

FFMIM [L-amino acid 5-mer array peptide]
S/B (signal to background ratio) [4]: 5.1 | S/B (signal to background ratio) [5]: 5.1

FFMMF [L-amino acid 5-mer array peptide]
S/B (signal to background ratio) [4]: 4.3 | S/B (signal to background ratio) [5]: 4.3

FHHPM
S/B (signal to background ratio) [2]: 95.4

FHHPQ
S/B (signal to background ratio) [1]: 219.2

FHPMF
S/B [3]: 14.7

FHPMG
S/B (signal to background ratio) [2]: 59.2

FHPMM
S/B (signal to background ratio) [1]: 24.3

FHPMN
S/B (signal to background ratio) [1]: 26.9

FHPMS
S/B (signal to background ratio) [1]: 46.0
